Data: patent US20220144812A1, “QUINOLINE DERIVATIVES AND THEIR USE FOR THE TREATMENT OF CANCER” (Epizyme, Inc., priority 2019, published 2022)
Where two headings read alike, the source gives them in different places.

Tests used:
CREBBP (1084-1701) = biological target: T1, CREBBP (1084-1701) (Homo sapiens, UniProt Q92793); experiment: Biochemical assay for CREBBP (1084-1701), SAMDI; details: SAMDI, read-out: CREBBP Biochemistry IC50
T1 construct: measured in the following biochemical assay using CREBBP (1084-1701); purchased
T1 sequence (Q92793 1084-1701): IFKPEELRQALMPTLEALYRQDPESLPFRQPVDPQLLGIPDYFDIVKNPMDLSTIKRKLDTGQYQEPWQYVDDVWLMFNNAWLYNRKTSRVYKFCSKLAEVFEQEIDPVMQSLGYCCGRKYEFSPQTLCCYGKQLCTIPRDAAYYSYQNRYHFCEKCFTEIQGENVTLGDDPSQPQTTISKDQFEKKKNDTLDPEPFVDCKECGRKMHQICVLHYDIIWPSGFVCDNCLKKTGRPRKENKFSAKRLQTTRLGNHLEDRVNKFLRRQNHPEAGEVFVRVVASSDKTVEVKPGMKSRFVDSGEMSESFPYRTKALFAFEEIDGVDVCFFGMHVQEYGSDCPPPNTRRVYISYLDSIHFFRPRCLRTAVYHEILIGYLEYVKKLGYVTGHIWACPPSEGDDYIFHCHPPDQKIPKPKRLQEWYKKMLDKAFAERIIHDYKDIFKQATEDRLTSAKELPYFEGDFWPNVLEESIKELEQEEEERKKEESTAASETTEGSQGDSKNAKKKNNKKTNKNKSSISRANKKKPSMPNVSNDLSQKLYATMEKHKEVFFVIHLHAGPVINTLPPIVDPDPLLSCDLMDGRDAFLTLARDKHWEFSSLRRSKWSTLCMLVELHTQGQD
Method in brief: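 Acetyltransferase activity measured by SAMDI mass spectrometry after capture on biochip. Enzyme sat with compound 30 min at RT before acetyl-CoA and biotinylated H3 11-25 (K14R, K23R) peptide were added for 30 min at RT. Formic acid quench, bicarbonate neutralisation; IC50 values reported.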

[1] = tested on: H3K18Ac in HB-CLS-2 cells; experiment: H3K18AC in-cell western (ICW) assay; format: cell-based; details: H3K18Ac in-cell western, read-out: CREBBP ICW IC50
Method in brief: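 In-cell western: after methanol fixation, blocking, overnight 4° C anti-H3K18Ac staining, then 800CW secondary plus DRAQ5 for DNA content, integrated intensities were scanned at 800 and 700 nm. Before this, compound exposure lasted 2 hr at 37° C in HB-CLS-2 cells plated 16–24 hours earlier. Values expressed as IC50 (μM).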

EP300 (P300(1048-1664)) = biological target: T2, EP300 (P300(1048-1664)) (Homo sapiens, UniProt Q09472); experiment: Biochemical assay for EP300, SAMDI; details: EP300, SAMDI; read-out: EP300 Biochemistry IC50
T2 construct: P300(1048-1664)
T2 sequence (Q09472 1048-1664): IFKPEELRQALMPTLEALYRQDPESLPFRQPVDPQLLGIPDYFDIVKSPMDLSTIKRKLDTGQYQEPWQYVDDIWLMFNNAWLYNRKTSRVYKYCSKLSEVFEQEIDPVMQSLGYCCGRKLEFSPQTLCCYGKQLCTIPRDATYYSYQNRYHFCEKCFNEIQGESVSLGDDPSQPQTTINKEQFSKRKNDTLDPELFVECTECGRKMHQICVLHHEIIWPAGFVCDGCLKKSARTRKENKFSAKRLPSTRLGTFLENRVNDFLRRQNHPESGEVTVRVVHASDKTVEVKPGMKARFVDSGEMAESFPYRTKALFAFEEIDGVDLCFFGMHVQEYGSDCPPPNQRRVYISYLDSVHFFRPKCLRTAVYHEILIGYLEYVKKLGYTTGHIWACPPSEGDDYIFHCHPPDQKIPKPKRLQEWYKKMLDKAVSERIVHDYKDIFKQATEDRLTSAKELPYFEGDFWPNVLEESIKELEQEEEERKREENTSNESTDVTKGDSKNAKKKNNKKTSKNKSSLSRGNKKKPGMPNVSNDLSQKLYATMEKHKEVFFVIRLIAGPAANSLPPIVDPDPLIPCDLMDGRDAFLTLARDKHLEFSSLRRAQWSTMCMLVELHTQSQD
Description: The following example describes materials and methods relating to a biochemical assay for EP300. IC50 values (micromolar (μM)) are summarized in Table 1, Table 2, and Table 3 under the column labeled: “EP300 Biochemistry IC50 (micromolar).”

647V cells = experiment: High throughput proliferation (HTP) assay; format: cell-based; details: high throughput proliferation, read-out: CREBBP HTP IC50
Method in brief: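 Proliferation IC50 (micromolar) derived from a 7-day CellTiter-Glo viable-cell readout in 647V cells exposed, in triplicate, to rising compound concentrations; cells grown in DMEM plus 15% heat-inactivated FBS at 37° C under 5% CO2.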

[2] = Homo sapiens, 647-V, 647V cells

Compound	IC50 (CREBBP (1084-1701))	IC50 [1]	IC50 (EP300 (P300(1048-1664)))	IC50 ([1]; HB-CLS-2 cells)	IC50 (647V cells; Homo sapiens, 647-V)	IC50 (647V cells; [2])	IC50 (647V cells)
CCn1ncc(CN(C)C(=O)c2cc(-c3ccc(OCCNC)c(C)n3)nc3ccc(Cl)cc23)c1C [Compound 442]	76.9 nM	195 nM	414 nM	–	350 nM	–	–
CCn1ncc(CN(C)C(=O)c2nc(-c3cc(C(=O)NCCN4CCCC4)[nH]n3)nc3ccc(Cl)cc23)c1C [Compound 80]	1200 nM	1200 nM	690 nM	–	1400 nM	–	–
CNc1[nH]nc2cc(C)c(-c3nc(C(=O)N(C)Cc4cnc(C5CC5)n4C)c4cc(COC)ccc4n3)cc12 [Compound 617]	40.8 nM	87.6 nM	13.3 nM	–	84.1 nM	–	–
CCn1ncc(CN(C)C(=O)c2nc(-c3ccc(C(=O)NC)cc3)nc3ccc(Cl)cc23)c1C [Compound 156]	34000 nM	9600 nM	13000 nM	–	9600 nM	–	–
CCn1ncc(CN(C)C(=O)c2nc(-c3cc(CNC)ccc3C)nc3ccc(Cl)cc23)c1C [Compound 116]	3400 nM	2900 nM	6900 nM	–	1900 nM	–	–
CCn1ncc(CN(C)C(=O)c2cc(-c3cc(NC(=O)CNC)cc(C)n3)nc3ccc(Cl)cc23)c1C [Compound 397]	43 nM	–	42 nM	130 nM	–	160 nM	–
CCc1noc(CN(C)C(=O)c2cc(-c3ccc(NCCNC)c(C)n3)nc3ccc(Cl)cc23)n1 [Compound 575]	3380 nM	1520 nM	3870 nM	–	1530 nM	–	–
CCn1ncc(CN(C)C(=O)c2nc(-c3ccc(OCCNC(=O)OC(C)(C)C)c(C)c3)nc3ccc(Cl)cc23)c1C [Compound 143]	130 nM	6400 nM	8100 nM	–	–	–	4300 nM
CCn1ncc(CN(C)C(=O)c2nc(-c3cnnc(N)c3)nc3ccc(Cl)cc23)c1C [Compound 434]	3510 nM	1720 nM	2700 nM	–	2250 nM	–	–
CCn1ncc(CN(C)C(=O)c2cc(-c3ccc(NCCN(C)C)c(OC)c3)nc3ccc(Cl)cc23)c1C [Compound 585]	104 nM	332 nM	903 nM	–	177 nM	–	–
CCn1ncc(CN(C)C(=O)c2cc(-c3cnc[nH]3)nc3ccc(Cl)cc23)c1C [Compound 48]	380 nM	450 nM	110 nM	–	770 nM	–	–
CCn1ncc([C@@H](C)N(C)C(=O)c2cc(-c3ccc(NCCNC)c(C)n3)nc3ccc(Cl)cc23)c1C [Compound 608]	92.8 nM	107 nM	26.4 nM	–	39 nM	–	–
CCn1ncc(CN(C)C(=O)c2nc(-c3cccc(N)n3)nc3ccc(Cl)cc23)c1C [Compound 131]	5500 nM	4700 nM	2600 nM	–	7500 nM	–	–
CCn1ncc(CN(C)C(=O)c2nc(-c3cc(Cl)cc(CNC)c3)nc3ccc(Cl)cc23)c1C [Compound 82]	100 nM	1200 nM	460 nM	–	580 nM	–	–
CCn1ncc(CN(C)C(=O)c2nc(-c3cc4c(N)[nH]nc4cc3C)nc3ccc(COC)cc23)c1C [Compound 508]	46.3 nM	174 nM	22.4 nM	–	212 nM	–	–
CCn1ncc(CN(C)C(=O)c2cc(-c3cn(CCNC)cn3)nc3ccc(Cl)cc23)c1C [Compound 73]	820 nM	1000 nM	360 nM	–	–	–	1300 nM
CCn1ncc(CN(C)C(=O)c2cc(-c3cnc(CN(C)C)[nH]3)nc3ccc(Cl)cc23)c1C [Compound 146]	4000 nM	6500 nM	2300 nM	–	10000 nM	–	–
CCCOc1ccc(-c2nc(C(=O)N(C)Cc3cnn(CC)c3C)c3cc(Cl)ccc3n2)cc1Cl [Compound 157]	3200 nM	9600 nM	2800 nM	–	–	–	5600 nM
CCn1ncc(CN(C)C(=O)c2nc(-c3ccc(NC4CCOCC4)c(OC)c3)nc3ccc(Cl)cc23)c1C [Compound 64]	79 nM	710 nM	300 nM	–	580 nM	–	–
CCn1ncc(CN(C)C(=O)c2nc(-c3ccc4cc[nH]c4c3)nc3ccc(Cl)cc23)c1C [Compound 67]	280 nM	780 nM	250 nM	–	550 nM	–	–
CCn1ncc(CN(C)C(=O)c2nc(-c3cc(CNC)n(C)n3)nc3ccc(Cl)cc23)c1C [Compound 380]	25000 nM	–	14000 nM	20000 nM	–	20000 nM	–
CCn1ncc(CN(C)C(=O)c2cc(-n3cc(C)cn3)nc3ccc(Cl)cc23)c1C [Compound 129]	7400 nM	4600 nM	1400 nM	–	8300 nM	–	–
CCn1ncc(CN(C)C(=O)c2nc(-c3ccnc(Cl)c3)nc3ccc(NC)cc23)c1C [Compound 87]	840 nM	1400 nM	880 nM	–	1400 nM	–	–
CNCCNc1ccc(-c2cc(C(=O)N(C)Cc3onc(C4CC4)c3C)c3cc(Cl)ccc3n2)nc1C [Compound 599]	518 nM	1600 nM	1750 nM	–	1260 nM	–	–

Now those with a lower IC50 (CREBBP (1084-1701)), led by results:

IC50 (CREBBP (1084-1701))	IC50 [1]	IC50 (EP300 (P300(1048-1664)))	IC50 ([1]; HB-CLS-2 cells)	Compound	IC50 (647V cells; Homo sapiens, 647-V)	IC50 (647V cells; [2])	IC50 (647V cells)
29 nM	–	13 nM	110 nM	CCn1ncc(CN(C)C(=O)c2cc(-c3cc4[nH]cnc4cn3)nc3ccc(Cl)cc23)c1C [Compound 400]	–	110 nM	–
24.8 nM	112 nM	13.2 nM	–	CCn1ncc(CN(C)C(=O)c2nc(-c3ccc(OCCCNC)c(C)c3C)nc3ccc(Cl)cc23)c1C [Compound 446]	34.2 nM	–	–
25.4 nM	132 nM	10 nM	–	CCn1ncc(CN(C)C(=O)c2cc(-c3ccc(NC4CCNC4)c(C)n3)nc3ccc(Cl)cc23)c1C (stereo not drawn) [Compound 472]	48 nM	–	–
13.5 nM	55.4 nM	5.7 nM	–	CCc1ncc(CN(C)C(=O)c2nc(-c3cc4c(NC)n[nH]c4cc3C)nc3ccc(Cl)cc23)n1C [Compound 563]	37.5 nM	–	–
32 nM	–	23 nM	240 nM	CCc1cc(-c2nc(C(=O)N(C)Cc3cnn(CC)c3C)c3cc(Cl)ccc3n2)ccc1NC1CCOCC1 [Compound 415]	–	240 nM	–
39 nM	220 nM	20 nM	–	CCn1ncc(CN(C)C(=O)c2nc(-c3ccc(OCC(O)CN4CCCC4)c(Cl)c3)nc3ccc(Cl)cc23)c1C (stereo not drawn) [Compound 27]	110 nM	–	–
35.8 nM	88.6 nM	9.5 nM	–	CCn1ncc(CN(C)C(=O)c2cc(-c3ccc(NCCNC)c(C(F)(F)F)n3)nc3ccc(Cl)cc23)c1C [Compound 471]	29.2 nM	–	–
28 nM	1100 nM	180 nM	–	CCn1ncc(CN(C)C(=O)c2nc(-c3ccc(OCCN)c(C)c3)nc3ccc(Cl)cc23)c1C [Compound 76]	840 nM	–	–
33 nM	–	140 nM	650 nM	CCn1ncc(CN(C)C(=O)c2nc(-c3cc(OC)c4cn[nH]c4c3)nc3ccc(Cl)cc23)c1C [Compound 390]	–	680 nM	–
16 nM	60 nM	11 nM	–	CCn1ncc(CN(C)C(=O)c2nc(-c3cc(NCCNC)cc(OC)c3)nc3ccc(Cl)cc23)c1C [Compound 5]	35 nM	–	–
25.1 nM	67.2 nM	12.3 nM	–	CNc1[nH]nc2cc(C)c(-c3nc(C(=O)N(C)Cc4cnn(CC(F)(F)F)c4C)c4cc(Cl)ccc4n3)cc12 [Compound 620]	77.7 nM	–	–
28.5 nM	378 nM	6.4 nM	–	CCn1ncc(CN(C)C(=O)c2nc(-c3cc(C)cc(N[C@H]4CCNC4)c3)nc3ccc(Cl)cc23)c1C [Compound 476]	204 nM	–	–
